Reference: article PMC7591906, “pHLIP ICG for delineation of tumors and blood flow during fluorescence-guided surgery” (Scientific Reports, 2020)

How the values were obtained:
[1] = cited from earlier work
Description: We carried out a comparative study of blood flow imaging in mice using ICG-Cys (ICG-maleimide conjugated with a Cys residue) and pHLIP ICG (2.5 nmol of each). […] The most widely used is the near-infrared emitting ICG, first approved for angiography and subsequently used in ophthalmology and elsewhere for imaging blood vessels[36]–[41]. […] If administered intraperitoneally, ICG is found in the nearest lymph nodes within 15 min, and in the regional lymph nodes within 1–2 h[44],[45]. The IV dose of ICG varies from 0.5 to 2.0 ...

[2] = Peripheral blood micronucleus test in rats (GLP); assay type: in vivo, Sprague Dawley rats; settings: male rats, 10 mg/kg oral gavage twice, 24 hours apart
Description: The objective of this GLP study performed at CRL was to determine the potential genotoxicity of pHLIP ICG when given by i.v. bolus injection to rats using the peripheral blood micronucleus test.
In order to determine the maximum tolerated dose, a dose-range finding test was performed prior to the main test, where male and female rats (3 animals/sex) were administered a single dose of pHLIP ICG by i.v. injection. The doses evaluated were 14 mg/kg and 25 mg/kg using 5% EtOH in PBS, pH 7.4 as the vehicle.
Blood was collected for micronuclei evaluation at 45 hours post-dose (Groups 3 to 7), and 69 hours post-dose (Groups 3 and 7). The proportion of immature erythrocytes among total erythrocytes in the peripheral blood (%RETs) and the percentage of micronucleated reticulocytes (%MN-RETs) in the NC group were within the laboratory historical negative control range. […] The results from both NC and PC groups confirmed the validity of the assay.

[3] = molecular target: T1, progesterone receptor B (Homo sapiens, UniProt P06401); test: Progesterone receptor B radioligand binding assay
T1 construct: purchased Eurofins Panlabs, Inc
T1 sequence (P06401 1-933): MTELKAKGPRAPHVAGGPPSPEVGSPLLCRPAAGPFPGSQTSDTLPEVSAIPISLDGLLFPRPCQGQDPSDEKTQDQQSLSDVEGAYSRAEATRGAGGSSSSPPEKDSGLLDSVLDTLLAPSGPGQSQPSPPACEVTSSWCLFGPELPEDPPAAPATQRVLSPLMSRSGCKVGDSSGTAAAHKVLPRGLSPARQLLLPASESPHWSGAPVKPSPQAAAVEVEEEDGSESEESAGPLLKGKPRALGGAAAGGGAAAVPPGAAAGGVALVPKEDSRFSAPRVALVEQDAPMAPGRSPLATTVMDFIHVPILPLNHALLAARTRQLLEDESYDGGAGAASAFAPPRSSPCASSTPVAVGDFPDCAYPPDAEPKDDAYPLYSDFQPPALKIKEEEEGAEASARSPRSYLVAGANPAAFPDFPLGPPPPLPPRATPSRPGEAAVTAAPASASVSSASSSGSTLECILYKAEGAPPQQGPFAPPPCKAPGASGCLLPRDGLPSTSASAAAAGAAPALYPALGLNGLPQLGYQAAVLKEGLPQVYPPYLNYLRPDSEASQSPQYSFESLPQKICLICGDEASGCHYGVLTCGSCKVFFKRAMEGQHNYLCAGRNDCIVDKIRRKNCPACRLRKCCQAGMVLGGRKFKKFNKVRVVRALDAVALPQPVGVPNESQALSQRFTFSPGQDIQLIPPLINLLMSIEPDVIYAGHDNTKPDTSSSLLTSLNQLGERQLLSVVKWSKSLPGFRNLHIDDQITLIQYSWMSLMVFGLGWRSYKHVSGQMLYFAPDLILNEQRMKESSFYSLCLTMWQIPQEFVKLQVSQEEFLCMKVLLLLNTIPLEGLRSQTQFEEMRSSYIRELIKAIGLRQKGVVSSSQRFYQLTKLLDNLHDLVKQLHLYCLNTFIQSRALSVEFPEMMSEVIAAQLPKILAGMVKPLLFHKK
Description: The pHLIP ICG enzyme binding assays were performed by Eurofins Panlabs, Inc. according to standard assay protocols. The following enzymes were used in the binding assay with 2 µM of pHLIP ICG : acetyl cholinesterase; peptidase (angiotensin converting enzyme); ATPase (Na^+/K^+, pig heart); CTSG peptidase (cathepsin G); cyclooxygenases COX-1 and COX-2; monoamine oxidases MAO-A and MAO-B; phosphodiesterases PDE3 and PDE4D2; protein tyrosine kinase (insulin receptor); protein tyrosine kinase (LCK); protein serine/threonine kinase (PKC, non-selective); adenosine A1 and A2A; adenosine transporter; adrenergic α1A, α1B, α1D, α2A, α2B, β1 and β2; norepinephrine transporter (NET); androgen (testosterone); angiotensin AT1; bradykinin B2; calcium channels L-type (benzothiazepine, dihydropyridine, phenylalkylamine); calcium channel N-type; cannabinoid CB1 and CB2; chemokine CCR1; cholecystokinin CCK1 (CCKA) and CCK2 (CCKB); dopamine D1, D2L and D2S; dopamine transporter (DAT); endothelin ETA; estrogen ERα; GABA transporter; GABAAs (flunitrazepam, central; Ro-15-1788, hippocampus and chloride channel, TBOB); glucocorticoid; glutamate (AMPA, kainate, agonism NMDA, glycine NMDA, phencyclidine NMDA, polyamine NMDA, and mGlu5 metabotropic); glycine (strychnine-sensitive); histamine H1 and H2; chemokine CXCR2 (IL-8RB); cysteinyl leukotriene (CysLT1); melanocortin MC1 and MC4; muscarinic M1, M2, M3, and M4; tachykinin NK1; neuropeptide Y Y1; nicotinic acetylcholine α1 (bungarotoxin) and α3β4; opiate δ1 (OP1, DOP), κ (OP2, KOP), and μ (OP3, MOP); platelet activating factor (PAF); potassium channels (KATP and hERG); PPARγ; serotonin (5-hydroxytryptamine) 5-HT1A, 5-HT1B, 5-HT2A, 5-HT2B, 5-HT2C, and 5-HT3; serotonin transporter (SERT); sodium channel (site 2); vasopressin V1A; progesterone (PR-B). The most significant inhibitory effect of pHLIP ICG was observed on progesterone B and was followed by an additional study to identify IC50 values, which were determined by a non-linear least square regression analysis using MathIQTM (ID Business Solutions Ltd., UK). The Ki values were calculated by the equation from Cheng and Prusoff [Cheng, Y., Prusoff, W.H., Biochem. Pharmacol. 22:3099-3108, 1973] using the observed IC50 of pHLIP ICG , the concentration of radioligand employed in the assay, and the historical values for the KD of the ligand (Eurofins Panlabs data). The Hill coefficient (nH), defining the slope of the competitive binding curve, was calculated using MathIQTM. The IC50, Ki, and nH values were established for pHLIP ICG and compared to the known progesterone agonist, R-2050 (Figure S3).
Figure SI,3. […]

SMILES: CC1(C)C(/C=C/C=C/C=C/C=C2\N(CCCCS(=O)(=O)O)c3ccc4ccccc4c3C2(C)C)=[N+](CCCCS(=O)(=O)[O-])c2ccc3ccccc3c21 [ICG, indocyanine green]
- Time to be found in the nearest lymph nodes ([1]; administered intraperitoneally): ≤ 15 min
- Time to be found in the regional lymph nodes ([1]; administered intraperitoneally): 1 to 2 h
- Clearance from the blood ([1]; as contrast agent for imaging blood flow, no reference given): within a few minutes
- Half-life in blood [1]: 2.5 min
- Time of appearance in the bile after injection ([1]; cleared through the liver): about 8 min
- Acute toxicity ([1]; high dose of 5 mg/kg): no acute toxicity has been observed

SMILES: O=P1(N(CCCl)CCCl)NCCCO1 (stereo not drawn) [PC, cyclophosphamide monohydrate, reference compound]
- Micronuclei, positive control [2]: statistically significant increase in micronuclei

SMILES: CCC(=O)[C@@]1(C)CC[C@H]2[C@@H]3CCC4=CC(=O)CCC4=C3CC[C@@]21C [R-2050, reference compound]
- Ki ([3]; Cheng-Prusoff from IC50, reference agonist, read-out: Ki progesterone receptor B): 0.26 nM
- IC50 ([3]; radioligand binding, 20 hrs, reference agonist, read-out: IC50 progesterone receptor B): 0.33 nM
